The results in this text go back to patent US20260374754A1, “N-((ISOQUINOLIN-6-YL)METHYL)-1H-PYRAZOLE-4-CARBOXAMIDE DERIVATIVES AS PLASMA KALLIKREIN INHIBITORS FOR THE TREATMENT OF HEREDITARY ANGIODEMA” (Takeda Pharmaceutical Company Limited, priority 2022, published 2026).

pEC50: −log10 of the molar value. Counter-ions that a name gives are not always drawn.

The target of one assay is T1, plasma kallikrein (Homo sapiens, UniProt P03952).
T1 construct: PFR-AMC substrate
The assay can be described thus: Neat Human Plasma Assay (Fluorogenic Peptide), contact pathway-activated (FXIIa) plasma. The class given is biochemical. The settings on record: human citrated plasma 78% final; 10 nM human FXIIa; PFR-AMC substrate; 5 minutes; room temperature. As for the experimental part:
To analyze inhibition of plasma kallikrein in an ex vivo setting, the potency of compounds was measure in contact pathway-activated plasma assays. In a fluorogenic peptide substrate assay, test compounds dissolved in DMSO were added to sodium citrate collected human or rat plasma in a 96-well microplate. Alternatively, citrated plasma was collected from rats administered the compounds orally or by IV. 10 nM of human FXIIa (Enzyme Research Laboratories) diluted in PKa buffer (20 mM Tris-HCl, pH 7.5, 150 mM NaCl, 1 mM EDTA, 0.1% PEG-8000, and 0.1% Triton X-100) was added to the plasma, followed by the […] of the profluorescent, synthetic plasma kallikrein substrate PFR-AMC (also diluted in PKa buffer). Final plasma concentration in the reaction was 78%. Fluorescence was immediately monitored by excitation/emission wavelengths of 360 nm/480 nm respectively over a period of 5 minutes in a microplate reader. The resulting linear increase in fluorescence emission (reflecting PKa proteolysis of PFR-AMC substrate) was fit to extract a proteolytic rate (fluorescent units over time), and this rate was subsequently plotted against compound inhibitor concentration. Resulting plots were fit to a standard 4-parameter IC50/IC90 equation to determine min/max values, IC50/90, and slope. All experimental steps were performed at room temperature.

The target of assay [1] is human activated kallikrein enzyme (Homo sapiens, UniProt P03952). Nature of the assay: Inhibition of human activated plasma kallikrein, fluorogenic PFR-AMC substrate, 500 pM enzyme format. The class given is biochemical. Conditions: 500 pM activated kallikrein; 300 μM PFR-AMC; 30 min preincubation; 10 min room temperature; pH 7.5; read-out: Primary Dose Response Assay: Average EC50. A digest of the protocol:
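500 pM activated kallikrein preincubated 30 min at room temperature with inhibitors in pH 7.5 Tris/EDTA/NaCl buffer with PEG-400 and Triton X-100. Reaction started with 300 μM PFR-AMC, run 10 min at room temperature; AMC fluorescence read at ex 380/em 460 nm.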

human activated kallikrein enzyme, sequence (P03952 391-638 limits assumed): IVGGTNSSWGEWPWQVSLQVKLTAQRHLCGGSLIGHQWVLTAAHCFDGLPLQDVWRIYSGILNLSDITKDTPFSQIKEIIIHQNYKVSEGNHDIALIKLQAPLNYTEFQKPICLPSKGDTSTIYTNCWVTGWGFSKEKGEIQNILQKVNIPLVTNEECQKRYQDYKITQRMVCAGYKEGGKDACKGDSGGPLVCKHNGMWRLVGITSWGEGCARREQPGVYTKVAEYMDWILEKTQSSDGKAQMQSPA
human activated kallikrein enzyme, sequence (P03952 20-390 partner limits assumed): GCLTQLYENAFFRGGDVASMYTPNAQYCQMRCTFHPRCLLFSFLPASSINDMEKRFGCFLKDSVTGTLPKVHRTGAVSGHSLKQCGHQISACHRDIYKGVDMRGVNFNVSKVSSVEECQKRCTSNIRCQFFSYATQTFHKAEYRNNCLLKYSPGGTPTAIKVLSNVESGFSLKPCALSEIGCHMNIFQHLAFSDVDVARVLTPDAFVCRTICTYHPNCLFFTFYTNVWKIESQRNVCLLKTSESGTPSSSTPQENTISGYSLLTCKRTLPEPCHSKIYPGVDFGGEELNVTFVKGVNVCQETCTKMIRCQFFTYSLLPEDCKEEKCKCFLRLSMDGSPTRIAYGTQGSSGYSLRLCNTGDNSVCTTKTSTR
T1 sequence (P03952 20-638): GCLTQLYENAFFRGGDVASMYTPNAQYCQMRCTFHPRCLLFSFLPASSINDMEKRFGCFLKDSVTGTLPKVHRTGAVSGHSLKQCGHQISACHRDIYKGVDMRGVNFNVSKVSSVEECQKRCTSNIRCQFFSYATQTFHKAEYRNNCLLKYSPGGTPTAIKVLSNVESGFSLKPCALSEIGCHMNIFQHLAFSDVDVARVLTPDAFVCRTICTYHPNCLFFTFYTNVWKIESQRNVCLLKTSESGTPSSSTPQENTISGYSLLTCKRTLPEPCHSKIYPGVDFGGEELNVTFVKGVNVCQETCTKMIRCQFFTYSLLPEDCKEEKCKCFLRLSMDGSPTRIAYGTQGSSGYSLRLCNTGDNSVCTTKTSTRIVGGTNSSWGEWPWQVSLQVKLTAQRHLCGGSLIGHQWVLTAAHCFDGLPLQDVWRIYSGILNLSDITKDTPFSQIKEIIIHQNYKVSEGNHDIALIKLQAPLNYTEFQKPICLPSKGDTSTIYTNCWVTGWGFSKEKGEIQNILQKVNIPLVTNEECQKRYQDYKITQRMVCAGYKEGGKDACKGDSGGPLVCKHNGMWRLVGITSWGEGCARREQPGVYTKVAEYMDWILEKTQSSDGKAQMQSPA

Broadly, the IC90 is the concentration needed for an effect of 90%. Read a high IC90 as a need for much substance. By pEC50 is commonly meant the EC50 on a negative log10 scale, so that one unit is a factor of ten. `Cc1cc2c(N)nccc2c(C)c1CNc1cc(OCc2cn3cc(C4CC4)cnc3n2)ncn1` [Example 262, 6-(((6-((6-cyclopropylimidazo[1,2-a]pyrimidin-2-yl)methoxy)pyrimidin-4-yl)amino)methyl)-5,7-dimethylisoquinolin-1-amine] came in with an IC90 at plasma kallikrein of at most 1 µM. Besides, the pEC50 in assay [1] was above 9.00. With `Cc1cc2c(N)nccc2c(C)c1CNc1cc(OCc2cn3cc(C4CC4)ccc3n2)ncn1` [Example 305, 6-(((6-((6-cyclopropylimidazo[1,2-a]pyridin-2-yl)methoxy)pyrimidin-4-yl)amino)methyl)-5,7-dimethylisoquinolin-1-amine], the 90% effect concentration (IC90) against plasma kallikrein was above 5 µM. In assay [1], the pEC50 is above 9.00. For `Cc1c(CNc2cc(OCc3ccc(Cn4cccn4)cc3)ncn2)ccc2c(N)nccc12` [Example 533, 6-(((6-((4-((1H-pyrazol-1-yl)methyl)benzyl)oxy)pyrimidin-4-yl)amino)methyl)-5-methylisoquinolin-1-amine], in that order: above 5 µM and 8.00 to 9.00. The compound `Cc1cc2c(N)nccc2c(C)c1CNc1cc(OCc2cn3cc(C4CC4)ccc3n2)c(Cl)cn1` [Example 280, 6-(((5-chloro-4-((6-cyclopropylimidazo[1,2-a]pyridin-2-yl)methoxy)pyridin-2-yl)amino)methyl)-5,7-dimethylisoquinolin-1-amine] returned a concentration for an effect of 90% (IC90) against plasma kallikrein above 5 µM. Further, the pEC50 in assay [1] was 8.00 to 9.00.

On plasma kallikrein, `Cc1cc2c(N)nccc2c(C)c1CNc1cc2c(cn1)c(F)cn2Cc1cn2cc(C3CC3)ccc2n1` [Example 285, 6-(((1-((6-cyclopropylimidazo[1,2-a]pyridin-2-yl)methyl)-3-fluoro-1H-pyrrolo[3,2-c]pyridin-6-yl)amino)methyl)-5,7-dimethylisoquinolin-1-amine] came in with an IC90 of 1 to 5 µM. In addition, the pEC50 in assay [1] was 8.00 to 9.00. `Cc1cc2c(N)nccc2c(C)c1CNc1nccn2nc(Cc3cn4cc(C5CC5)ccc4n3)nc12` [Example 498, 6-(((2-((6-cyclopropylimidazo[1,2-a]pyridin-2-yl)methyl)-[1,2,4]triazolo[1,5-a]pyrazin-8-yl)amino)methyl)-5,7-dimethylisoquinolin-1-amine] returned a concentration for an effect of 90% (IC90) on plasma kallikrein of 1 to 5 µM. The pEC50 in assay [1] was 8.00 to 9.00.

`Cc1cc2c(N)nccc2c(C)c1CNC(=O)c1cnn(Cc2nc3ccc(C4CC4)cn3n2)c1` [Example I-482, N-((1-amino-5,7-dimethylisoquinolin-6-yl)methyl)-1-((6-cyclopropyl-[1,2,4]triazolo[1,5-a]pyridin-2-yl)methyl)-1H-pyrazole-4-carboxamide]: the IC90 at plasma kallikrein was at most 1 µM. Also, the pEC50 in assay [1] was above 9.00. As for `Cc1cc2c(N)nccc2c(C)c1CNC(=O)c1ccnc(Cc2cn3cc(C4CC4)ccc3n2)c1` [Example 514, N-((1-amino-5,7-dimethylisoquinolin-6-yl)methyl)-2-((6-cyclopropylimidazo[1,2-a]pyridin-2-yl)methyl)isonicotinamide], the concentration for an effect of 90% (IC90) against plasma kallikrein is at most 1 µM. Besides, the pEC50 in assay [1] is above 9.00. On plasma kallikrein, `Cc1cc2c(N)nccc2c(C)c1CNc1cc(OCc2cc3cc(C4CC4)cc(CC(C)(C)C#N)n3n2)ncn1` [Example 510, 3-(2-(((6-(((1-amino-5,7-dimethylisoquinolin-6-yl)methyl)amino)pyrimidin-4-yl)oxy)methyl)-5-cyclopropylpyrazolo[1,5-a]pyridin-7-yl)-2,2-dimethylpropanenitrile] came in with an IC90 of 1 to 5 µM. Also, the pEC50 in assay [1] is 8.00 to 9.00. In the case of `Cc1cc2c(N)nccc2c(C)c1CNc1cc(OCc2nc3ccc(C4CC4)nn3n2)ncn1` [Example 391, 6-(((6-((6-cyclopropyl-[1,2,4]triazolo[1,5-b]pyridazin-2-yl)methoxy)pyrimidin-4-yl)amino)methyl)-5,7-dimethylisoquinolin-1-amine], the 90% effect concentration (IC90) at plasma kallikrein was above 5 µM. Moreover, the pEC50 in assay [1] is 7.00 to 8.00. Take `Cc1cc2c(N)nccc2c(C)c1CNc1cc(OCc2cn3nc(C4CC4)ccc3n2)ncn1` [Example 261, 6-(((6-((6-cyclopropylimidazo[1,2-b]pyridazin-2-yl)methoxy)pyrimidin-4-yl)amino)methyl)-5,7-dimethylisoquinolin-1-amine]: the IC90 against plasma kallikrein was in the range of 1 to 5 µM. The negative-log EC50 (pEC50) in assay [1] was above 9.00.

As for `Cc1cc2c(N)nccc2c(C)c1CNc1ncncc1NCc1cn2cc(C3CC3)ccc2n1` [Example 288, N4-((1-amino-5,7-dimethylisoquinolin-6-yl)methyl)-N5-((6-cyclopropylimidazo[1,2-a]pyridin-2-yl)methyl)pyrimidine-4,5-diamine], the IC90 on plasma kallikrein is above 5 µM. Also, in assay [1], the negative logarithm of the EC50 (pEC50) was 8.00 to 9.00.

Take `Cc1cc2c(N)nccc2c(C)c1CNc1cc(OCc2cn3cc(C4CC4)ccc3n2)ccn1` [Example 284, 6-(((4-((6-cyclopropylimidazo[1,2-a]pyridin-2-yl)methoxy)pyridin-2-yl)amino)methyl)-5,7-dimethylisoquinolin-1-amine]: the IC90 against plasma kallikrein is above 5 µM. Further, the pEC50 in assay [1] is above 9.00. `Cc1cc2c(N)nccc2c(C)c1CNc1cc(NCc2ccc(Cn3ccccc3=O)cc2)cnn1` [Example 236, 1-(4-(((6-(((1-amino-5,7-dimethylisoquinolin-6-yl)methyl)amino)pyridazin-4-yl)amino)methyl)benzyl)pyridin-2(1H)-one] gave an IC90 at plasma kallikrein of at most 1 µM. The pEC50 in assay [1] was above 9.00. Compound `Cc1cnc2ccc(Cn3cc(C(=O)NCc4c(C)cc5c(N)nccc5c4C)cn3)cc2c1` [Example 115, N-((1-amino-5,7-dimethylisoquinolin-6-yl)methyl)-1-((3-methylquinolin-6-yl)methyl)-1H-pyrazole-4-carboxamide] came in with an IC90 against plasma kallikrein of at most 1 µM. For the same compound, the negative-log EC50 (pEC50) in assay [1] was above 9.00.

Compound `Cc1cc2c(N)nccc2c(C)c1CNc1cc(OCc2cn3cc(C4CC4)ccc3n2)cnn1` [Example 426, 6-(((5-((6-cyclopropylimidazo[1,2-a]pyridin-2-yl)methoxy)pyridazin-3-yl)amino)methyl)-5,7-dimethylisoquinolin-1-amine, formic acid salt] showed an IC90 against plasma kallikrein of 1 to 5 µM. Besides, the pEC50 in assay [1] was above 9.00. With `Cc1cc2c(N)nccc2c(C)c1CNc1cc(NCc2ccc(OC(F)(F)C(=O)N(C)C)cc2)ncn1` [Example 352, 2-(4-(((6-(((1-amino-5,7-dimethylisoquinolin-6-yl)methyl)amino)pyrimidin-4-yl)amino)methyl)phenoxy)-2,2-difluoro-N,N-dimethylacetamide], the pEC50 in assay [1] was 7.00 to 8.00. For `Cc1cc2c(N)nccc2c(C)c1CNC(=O)c1cnn(Cc2ccc3ccc(Br)cc3n2)c1` [Example 156, N-((1-amino-5,7-dimethylisoquinolin-6-yl)methyl)-1-((7-bromoquinolin-2-yl)methyl)-1H-pyrazole-4-carboxamide], the negative-log EC50 (pEC50) in assay [1] is 8.00 to 9.00. Take `Cc1cc2c(N)nccc2c(C)c1CNC(=O)c1cnn(Cc2ccc(CC(=O)N(C)C)c(C(F)(F)F)c2)c1` [Example 152, N-((1-amino-5,7-dimethylisoquinolin-6-yl)methyl)-1-(4-(2-(dimethylamino)-2-oxoethyl)-3-(trifluoromethyl)benzyl)-1H-pyrazole-4-carboxamide]: the pEC50 in assay [1] was above 9.00. The same measure, in the same setting: for `COC(=O)C(c1cn2cc(C)ccc2n1)n1cc(C(=O)NCc2c(C)cc3c(N)nccc3c2C)cn1` (stereo not shown) [Example 14, methyl 2-(4-(((1-amino-5,7-dimethylisoquinolin-6-yl)methyl)carbamoyl)-1H-pyrazol-1-yl)-2-(6-methylimidazo[1,2-a]pyridin-2-yl)acetate] the value was 6.00 to 7.00; for `Cc1cc2cc(CNc3cc(NCc4c(C)cc5c(N)nccc5c4C)ncn3)cnc2cc1C` [Example 325, N^4-((1-amino-5,7-dimethylisoquinolin-6-yl)methyl)-N^6-((6,7-dimethylquinolin-3-yl)methyl)pyrimidine-4,6-diamine], 8.00 to 9.00. The same measure, in the same setting: as for `Cc1cc2c(N)nccc2c(C)c1CNc1cc(NCc2ccc(OCc3ccccn3)cc2)ncn1` [Example 349, N^4-((1-amino-5,7-dimethylisoquinolin-6-yl)methyl)-N^6-(4-(pyridin-2-ylmethoxy)benzyl)pyrimidine-4,6-diamine, formic acid salt], the figure is 8.00 to 9.00. As to `COc1ccc2nc(Cl)c(Cn3cc(C(=O)NCc4c(C)cc5c(N)nccc5c4C)cn3)cc2c1` [Example 109, N-((1-amino-5,7-dimethylisoquinolin-6-yl)methyl)-1-((2-chloro-6-methoxyquinolin-3-yl)methyl)-1H-pyrazole-4-carboxamide], the pEC50 in assay [1] was 8.00 to 9.00. Still for that read-out and setting: as for `Cc1ccc2nc(C(C)n3cc(C(=O)NCc4c(C)cc5c(N)nccc5c4C)cn3)cn2c1` (single isomer, unassigned) [Example 11, (R*)-N-((1-amino-5,7-dimethylisoquinolin-6-yl)methyl)-1-(1-(6-methylimidazo[1,2-a]pyridin-2-yl)ethyl)-1H-pyrazole-4-carboxamide], the figure is above 9.00.
